How the values were obtained:
Aurora B kinase = target: T1, Aurora B kinase (Homo sapiens, UniProt Q96GD4); assay: Aurora B (Aurora 1) Inhibition Assay; format: biochemical; details: 100 μM compound; ATP 50 μM; 16 h
T1 construct: purchased BPS Biosciences, San Diego, Calif
Procedure: Assays for Aurora B kinase inhibition were carried out similarly to those for Aurora A kinase (see above) with the following modifications. Aurora B kinase (BPS Biosciences, San Diego, Calif.) was used as the enzyme, at a concentration was 2.5 μg/mL. The ATP concentration was 50 μM, and the kinase reaction was allowed to proceed for 16 h. Sodium orthovanadate (20 μM) was added to the buffer to inhibit contaminating phosphatases.

recombinant Aurora A = target: T2, recombinant Aurora A (Homo sapiens, UniProt O14965); assay: Aurora A (Aurora 2) Inhibition Assay (Z'-Lyte); format: biochemical; details: 100 μM compound; ATP 10 μM; 1 h
T2 construct: purchased Upstate, Lake Placid, N.Y
T2 sequence (O14965 1-403): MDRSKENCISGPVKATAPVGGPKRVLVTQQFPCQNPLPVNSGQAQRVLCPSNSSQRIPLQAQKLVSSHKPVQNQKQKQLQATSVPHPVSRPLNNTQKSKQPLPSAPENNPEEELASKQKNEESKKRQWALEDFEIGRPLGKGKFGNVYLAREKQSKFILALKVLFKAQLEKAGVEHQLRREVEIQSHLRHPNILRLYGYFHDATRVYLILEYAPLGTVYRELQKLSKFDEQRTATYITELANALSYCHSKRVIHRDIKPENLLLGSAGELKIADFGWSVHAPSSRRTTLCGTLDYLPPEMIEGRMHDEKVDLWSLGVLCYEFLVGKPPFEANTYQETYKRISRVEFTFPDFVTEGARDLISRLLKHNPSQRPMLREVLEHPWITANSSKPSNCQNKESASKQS
Procedure: Compounds were tested for their potency against recombinant Aurora A (Upstate, Lake Placid, N.Y.) using the PanVera Z'-Lyte kinase assay kit-Ser/[…] peptide (Invitrogen, Carlsbad, Calif.). […] Assays were carried out in half-area 96-well white polystyrene assay plates (Corning, Corning, N.Y.) in a final volume of 20 μl. The reaction was allowed to proceed for 1 h at room temperature in the dark, at which point the development reagent and stop reagent were added according to the manufacturer's instructions. Coumarin (Ex. 400 nm, Em. 465 nm) and fluorescein (Ex. 400 nm, Em. 565 nm) fluorescence values were measured on a SpectraFluor Plus plate reader (Tecan, Durham, N.C.). The emission ratio (coumarin/fluorescein) was determined and used to calculate the percent phosphorylation for each well. […] Typically 20-40% of the substrate was phosphorylated in wells without inhibitor. Dose-response curves of relative Aurora A activity vs. inhibitor concentration were plotted with Grafit (Erithacus Software, Horley, Surrey, UK).

HCT-116 cell growth = assay: Whole Cell Cytotoxicity Assay: Sulforhodamine B; format: cell-based, Human; details: Homo sapiens, HCT-116; 100 μM compound; 96 hours; SRB staining
Procedure: Human tumor-derived cell lines, HCT116 or MCF7 (ATCC) were plated in a 96 well plate in DMEM containing 10% fetal bovine serum and 2 mM L-glutamine at a density of 500 HCT116 cells or 1,000 MCF7 cells per well and incubated at 37° C., 5% CO2, for 24 hours prior to the addition of experimental compounds. Compounds were added using the dilution series indicated to duplicate plates and the cells were incubated in media plus compound for 96 hours. An additional plate was fixed in 10% TCA at the time of the addition of compound to provide a measurement of the cell population at time zero, the time of drug addition. Following the 96 hour incubation, cells were fixed in situ by gently aspirating off the culture media and then adding 50 ul of ice cold 10% TCA per well and incubation at 4° C. for 60 minutes. The plates were washed with tap water five times and allowed to air dry for 5 minute. 50 ul of a 0.4% (w/v) Sulforhodamine B solution in 1% (v/v) acetic acid was added per well and the cells were incubated for 30 minutes at room temperature. Following staining, plates were washed four times with 1% acetic acid to remove any unbound dye and then allowed to air dry for 5 minutes. The stain was solubilized with 100 ul of 10 mM Tris pH 10.5 per well and placed on an orbital rotator for 5 minutes. The absorbance was read at 570 nm. Percentage growth was calculated using the absorbance readings from the time zero plate (Tz) and the dilution series plate […] which included a column of cells grown in media without compound as a control (C) using the formulas: [(Ti−Tz)/(C−Tz)]×100 for concentrations for which Ti>/=Tz [(Ti−Tz)/Tz]×100 for concentrations for which Ti<Tz.
Three dose response parameters were calculated for each experimental agent. Growth inhibition of 50% (GI50) was calculated from [(Ti−Tz)/(C−Tz)]×100=50, which was the drug concentration resulting in a 50% reduction in the net protein increase (as measured by SRB staining) in control cells during the drug incubation. The drug concentration resulting in total growth inhibition (TGI) was calculated from Ti=Tz. The LC50 (concentration of drug resulting in a 50% reduction in the measured protein at the end of the drug treatment as compared to that at the beginning) indicating a net loss of cells following treatment was calculated from [(Ti−Tz)/Tz]×100=−50. Values are calculated for each of these three parameters if the level of activity was reached; however, if the effect was not reached or was exceeded, the value for that parameter is expressed as greater or less than the maximum or minimum concentration tested.

T1 sequence (Q96GD4 whole entry): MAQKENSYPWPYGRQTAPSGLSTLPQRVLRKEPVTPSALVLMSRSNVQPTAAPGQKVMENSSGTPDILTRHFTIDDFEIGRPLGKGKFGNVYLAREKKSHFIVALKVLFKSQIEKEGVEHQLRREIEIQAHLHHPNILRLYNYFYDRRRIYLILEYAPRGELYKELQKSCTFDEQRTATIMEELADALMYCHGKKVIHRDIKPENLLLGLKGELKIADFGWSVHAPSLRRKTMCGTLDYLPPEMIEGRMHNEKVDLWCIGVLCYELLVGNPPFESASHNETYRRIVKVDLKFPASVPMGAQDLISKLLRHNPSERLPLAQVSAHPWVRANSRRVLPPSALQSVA

inhibition at 100 µM (Aurora B kinase) [%]	inhibition at 100 µM (recombinant Aurora A) [%]	SMILES	inhibition at 100 µM (HCT-116 cell growth) [%]
97	100	Cc1cc(Nc2cc(N3CCN(C)CC3)nc(C#Cc3ccccc3)n2)n[nH]1 [Example 30, 6-(4-methylpiperazin-1-yl)-N-(3-methyl-1H-pyrazol-5-yl)-2-(phenylethynyl)pyrimidin-4-amine]	99
99	100	Cc1cc(Nc2cc(N3CCN(C)CC3)nc(/C=C\c3ccccc3)n2)n[nH]1 [Example 32, 6-(4-methylpiperazin-1-yl)-N-(3-methyl-1H-pyrazol-5-yl)-2-[(Z)-2-phenylvinyl]pyrimidin-4-amine]	87
99	100	Cc1cc(Nc2cc(N3CCN(C)CC3)nc(/C=C/c3ccco3)n2)n[nH]1 [Example 60, 2-((E)-2-(furan-2-yl)vinyl)-N-(5-methyl-1H-pyrazol-3-yl)-6-(4-methylpiperazin-1-yl)pyrimidin-4-amine]	98
100	100	Cc1cc(Nc2cc(OC3CCNCC3)nc(/C=C/c3ccccc3)n2)n[nH]1 [Example 100]	96

More lines, now with the values behind:

SMILES	inhibition at 100 µM (Aurora B kinase) [%]	inhibition at 100 µM (recombinant Aurora A) [%]	inhibition at 100 µM (HCT-116 cell growth) [%]
CCOC(=O)c1nc(/C=C/c2ccccc2)nc(Nc2cc(C)n[nH]2)c1N [Example 18, ethyl 5-amino-6-[(3-methyl-1H-pyrazol-5-yl)amino]-2-[(E)-2-phenylvinyl]pyrimidine-4-carboxylate]	100	100	80
COC(=O)c1cc(Nc2cc(C)n[nH]2)nc(/C=C/c2ccccc2)n1 [Example 26, methyl 6-[(3-methyl-1H-pyrazol-5-yl)amino]-2-[(E)-2-phenylvinyl]pyrimidine-4-carboxylate]	95	99	98
COCCNc1cc(Nc2cc(C)[nH]n2)nc(/C=C/c2ccccc2)n1 [Example 163, N^4-(2-methoxyethyl)-N^6-(5methyl-1H-pyrazol-3-yl)-2-styrylpyrimidine-4,6-diamine]	100	100	98
Cc1cc(Nc2cc(NCC3CCCO3)nc(/C=C/c3ccccc3)n2)n[nH]1 (stereo not drawn) [Example 164, N^4-((tetrahydrofuran-2-yl)methyl)-N^6-(5-methyl-1H-pyrazol-3-yl)-2-styrylpyrimidine-4,6-diamine]	100	100	96

From patent publication US7563787B2, “Substituted pyrazole compounds” (Miikana Therapeutics, Inc., priority 2005, dated 2009)
